Data reported in PMC7844219, “Antifibrotic effect of novel neutrophil gelatinase-associated lipocalin inhibitors in cardiac and renal disease models” (Scientific Reports, 2021).

System: myocardial infarction mouse model
Test: Myocardial infarction (MI) mouse model, left coronary artery ligation
Format: in vivo
Conditions: MI mice
Experimental: Animals were housed in a climate-controlled facility with a 12-h/12-h light/dark cycle and provided free access to food and water. Experiments were approved by the Darwin ethics committee of Sorbonne University, and conducted according to the INSERM animal care and use committee guidelines. The NGAL inhibitor GP1 was incorporated in regular chow (A04, Safe, Augy, France) at the dose of 625 mg GP1/kg of chow to achieve a low dose of 100 mg/kg/day of GP1 administered to the mice (based on a daily consumption of 4 g of chow).
Myocardial infarction (MI) was induced as previously described. Briefly, Chronic Heart Failure (CHF) resulted from left ventricle MI that was induced by left coronary artery ligation in 8 week-old male mice. Mice were anesthetized with intraperitoneal injections of ketamine (90 mg/kg, Merial, France) and xylazine (3.6 mg/kg, Bayer, France), followed by artificial ventilation. Anesthesia and sedation were controlled by monitoring heart rate and by performing paw pinch reflex and corneal reflex tests, before a thoracotomy was performed. The left main coronary artery was ligated close to its origin. After surgery, analgesia was prolonged during the awakening phase by an intramuscular injection of Beprucare (50 µg/kg). Post-infarction mortality in this mouse model is about 30–40%, primarily occurring around days 4–7 after MI. Sham-operated mice (control) were subjected to the same protocol except that the artery was not ligated. The inhibitor was administered the 8 day after MI for the indicated period. Tissue were harvested after 12 weeks after MI. Left ventricle diastolic and systolic diameters were measured in anesthetized (isofluorane 1.5%) mice, according to the American Society of Echocardiography’s leading-edge method (using Vivid 7 echograph a 14 MHz probe). In addition, LV outflow velocity was measured by pulsed waves, and CO was calculated as follows:
CO=aortic VTI×π×LV outflow diameter/2^2×heart rate, where VTI is velocity–time integral.
LV hemodynamic was assessed as described previously. Briefly, mice were anesthetized (chloral 320 mg/kg, IP) and the carotid artery cannulated with a pressure–volume catheter (SPR839, Millar-Instruments, USA) and the catheter was advanced into the LV. Pressure–volume loops were obtained at baseline and during loading by gently occluding the abdominal aorta. LV end-systolic and end-diastolic pressures, dP/dtmax/min, LV relaxation constant tau and were measured/calculated with IOX software (EMKA, France). Systolic BP was measured by tail-cuff plethysmography in trained conscious mice at weeks 8–10 using a BP2000 Visitech model. BP was measured every day in the same room at the same hour for 5 consecutive days. The BP measurements (expressed as mmHg) presented are the averages of the last 3 days.
In the MI model, heart was harvested after hemodynamics and the atria and the ventricles were separated and weighed individually. A section of the left ventricle was immersed in Bouin fixative solution. In the CKD model, kidneys were harvested and a section was immersed in paraformaldehyde fixative solution. After fixation, the sections were dehydrated and embedded in paraffin. From these sections, 5-μm thick histologic slices were obtained and were stained with Sirius Red. For the measurement of cardiac or renal collagen density, slides were examined and photographed under a light microscope (Zeiss) at 40× magnification. Collagen content was calculated as percentage of collagen area to total area of the image. Perivascular collagen was excluded from the analysis. For tubular lesions scoring, kidney slides were stained with Periodic Acid-Schiff kit (Sigma) and the score of tubules with injury (epithelial cell necrosis and detachment, and tubular dilation) was analyzed blinded to the experimental groups. […]

SMILES: CC(=O)c1cccc(S(=O)(=O)NCc2ccccc2-n2cccn2)c1 [GPZ614741]
- SV (stroke volume) (GP1 100 mg/kg/day in the food, three months, MI untreated 0.062 ± 0.005): 0.086 ± 0.004 ml/beat
- LVESD (left ventricular end systolic diameter) (GP1 100 mg/kg/day in the food, three months, MI untreated 5.47 ± 0.13): 4.90 ± 0.39 mm
- tau 1/2 (relaxation constant) (GP1 100 mg/kg/day in the food, three months, MI untreated 5.82 ± 0.32): 4.33 ± 0.21
- LVEDP (GP1 100 mg/kg/day in the food, three months, MI untreated 5.91 ± 0.49): 4.41 ± 0.57 mmHg
- LVEDD (left ventricular end diastolic diameter) (GP1 100 mg/kg/day in the food, three months, MI untreated 6.31 ± 0.12): 5.88 ± 0.39 mm
- tau e (relaxation constant) (GP1 100 mg/kg/day in the food, three months, MI untreated 7.97 ± 0.45): 6.08 ± 0.27
- LVW/TL (left ventricle weight/tibia length) (GP1 100 mg/kg/day in the food, three months, MI untreated 8.3 ± 0.3): 8.8 ± 0.6 mg/mm
- HW/TL (heart weight/tibia length) (GP1 100 mg/kg/day in the food, three months, MI untreated 10.9 ± 0.4): 11.3 ± 0.8 mg/mm
- FS (fractional shortening) (GP1 100 mg/kg/day in the food, three months, MI untreated 13.4 ± 1.0): 17.2 ± 1.3 %
- CO (cardiac output) (GP1 100 mg/kg/day in the food, three months, MI untreated 29.4 ± 1.9): 47.1 ± 3.3 mL/min
- LVESP (left ventricular end systolic pressure) (GP1 100 mg/kg/day in the food, three months, MI untreated 78.82 ± 2.76): 82.31 ± 4.22 mmHg
- LV (dP/dtmin), relaxation index (GP1 100 mg/kg/day in the food, three months, MI untreated 3117 ± 253): 4487 ± 413
- LV (dP/dtmax), contractility index (GP1 100 mg/kg/day in the food, three months, MI untreated 3894 ± 259): 4501 ± 320
- LV interstitial collagen deposition vs non-treated MI group (GP1 100 mg/kg/day in the food, Fig. 2A): significantly lower
- Infarct size in mid LV sections (GP1-treated, untreated 39.0 ± 2.3, n = 4–9, NS): 40.0 ± 1.8%
- Upregulation of cardiac IL6 protein and inflammatory markers CD68, CD80, CD86 (GP1, Fig. 2E): significantly prevented
- Upregulation of Col I, αSMA and CTGF protein levels (three months of GP1, Fig. 2B–D): significantly prevented
